Values after ≈ are worked out from the molar mass of the structure shown. Active and inactive are the calls of the source. No cut-off for these calls is given here.
Columns and labels:
[1] = biological target: T1, Interleukin-1 receptor-associated kinase 4 (Homo sapiens, UniProt Q9NWZ3); assay: Inhibition of IRAK4 (unknown origin) using 5FAM-RKRQGSVRRRVHCCOOH as substrate after 30 mins by IMAP assay
T1 sequence (Q9NWZ3 whole entry): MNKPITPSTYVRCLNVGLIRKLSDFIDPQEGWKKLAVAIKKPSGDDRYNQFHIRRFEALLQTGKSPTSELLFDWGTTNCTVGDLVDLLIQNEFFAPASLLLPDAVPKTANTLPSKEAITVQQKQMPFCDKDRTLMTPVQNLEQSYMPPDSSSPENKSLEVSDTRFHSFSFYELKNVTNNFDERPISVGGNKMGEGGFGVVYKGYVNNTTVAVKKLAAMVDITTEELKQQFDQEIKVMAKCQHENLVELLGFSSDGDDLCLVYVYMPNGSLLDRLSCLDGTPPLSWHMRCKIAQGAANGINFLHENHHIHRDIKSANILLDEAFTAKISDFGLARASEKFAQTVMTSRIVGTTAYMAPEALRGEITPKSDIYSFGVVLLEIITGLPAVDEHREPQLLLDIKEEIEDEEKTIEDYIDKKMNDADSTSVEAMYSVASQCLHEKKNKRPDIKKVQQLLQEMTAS

[2] = Apparent permeability of the compound across pig LLC-PK1 cells; assay type: ADME, cell-based, Sus scrofa
[3] = Clearance in Wistar Han rat at 1 mg/kg, iv; assay type: ADME, organism-based; details: in vivo
[4] = Kinetic solubility of the compound at pH 7; assay type: physicochemical; details: buffer
[5] = Oral bioavailability in Wistar Han rat at 10 mg/kg; assay type: ADME, organism-based; details: in vivo
[6] = biological target: T1, Interleukin-1 receptor-associated kinase 4; assay: Inhibition of IRAK4-mediated NFkappaB activation in human THP1-XBlue cells assessed as LPS-induced secreted embryonic alkaline phosphatase activity treated 1 hr before LPS challenge measured after 5 hrs by spectrophotometer analysis; assay type: cell-based, THP-1
[7] = biological target: Receptor-type tyrosine-protein kinase FLT3 (Homo sapiens) (UniProt P36888); assay: Inhibition of FLT3 (unknown origin)
Chain of Receptor-type tyrosine-protein kinase FLT3 (Homo sapiens) (P36888 whole entry): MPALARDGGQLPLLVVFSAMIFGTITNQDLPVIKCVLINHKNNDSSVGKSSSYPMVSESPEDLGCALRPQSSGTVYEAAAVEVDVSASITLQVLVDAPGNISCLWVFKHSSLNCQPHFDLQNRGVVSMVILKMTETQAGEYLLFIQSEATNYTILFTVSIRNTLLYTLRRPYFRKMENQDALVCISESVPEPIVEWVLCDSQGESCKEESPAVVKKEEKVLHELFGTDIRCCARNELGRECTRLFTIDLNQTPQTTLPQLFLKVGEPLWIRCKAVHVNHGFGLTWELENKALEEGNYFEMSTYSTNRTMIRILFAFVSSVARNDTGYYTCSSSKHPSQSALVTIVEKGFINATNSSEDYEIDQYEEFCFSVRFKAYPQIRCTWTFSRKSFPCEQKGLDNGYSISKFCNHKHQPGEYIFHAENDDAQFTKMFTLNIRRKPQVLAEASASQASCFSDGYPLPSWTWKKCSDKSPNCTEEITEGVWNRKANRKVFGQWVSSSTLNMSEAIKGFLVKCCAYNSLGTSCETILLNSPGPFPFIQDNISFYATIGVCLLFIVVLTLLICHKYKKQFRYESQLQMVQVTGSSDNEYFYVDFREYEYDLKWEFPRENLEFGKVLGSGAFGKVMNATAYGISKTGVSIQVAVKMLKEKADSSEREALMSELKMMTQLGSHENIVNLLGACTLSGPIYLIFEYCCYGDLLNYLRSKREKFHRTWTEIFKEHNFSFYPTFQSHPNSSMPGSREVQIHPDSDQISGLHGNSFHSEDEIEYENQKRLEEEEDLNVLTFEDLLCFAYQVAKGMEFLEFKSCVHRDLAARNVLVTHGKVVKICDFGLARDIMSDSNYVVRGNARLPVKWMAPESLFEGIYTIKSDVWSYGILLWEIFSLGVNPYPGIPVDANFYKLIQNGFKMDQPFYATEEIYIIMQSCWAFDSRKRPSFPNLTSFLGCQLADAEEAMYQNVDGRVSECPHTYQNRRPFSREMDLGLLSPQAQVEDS

| SMILES | IC50 [1] | Papp [2] | clearance [3] | solubility kinetic [4] | bioavailability [5] | IC50 [6] | inhibition [7] |
| --- | --- | --- | --- | --- | --- | --- | --- |
| CN(C)c1nc(N[C@@H]2C[C@H](CO)[C@@H](O)[C@H]2O)c(-c2nc3ccccc3s2)c(=O)[nH]1 | 490 nM |  |  |  |  |  |  |
| O=c1[nH]c(N2CCOCC2)nc(N[C@@H]2CCCNC2)c1-c1nc2ccccc2s1 |  | 29 ×10⁻⁶ cm/s | 45 mL/min/kg | 21 µM (≈ 8.66 µg/mL) | 13% |  |  |
| OC[C@H]1C[C@@H](Nc2nc(NC3CC3)ncc2-c2nc3ccccc3s2)[C@H](O)[C@@H]1O | 470 nM |  |  |  |  |  |  |
| C[C@@H]1CC[C@@H](Nc2nc(N3CCOCC3)[nH]c(=O)c2-c2nc3ccccc3s2)CN1 | 93 nM | 15 ×10⁻⁶ cm/s | 51 mL/min/kg | 13 µM (≈ 5.55 µg/mL) | 42% | 580 nM |  |
| O=c1[nH]c(N2CCOCC2)nc(N[C@H]2CNC[C@H](O)C2)c1-c1nc2ccccc2s1 |  | 9 ×10⁻⁶ cm/s | 43 mL/min/kg | 8 µM (≈ 3.43 µg/mL) | 2% | 333 nM |  |
| CSc1nc(N[C@@H]2C[C@H](CO)[C@@H](O)[C@H]2O)c(-c2nc3ccccc3s2)c(=O)[nH]1 | 352 nM |  |  |  |  |  |  |
| C[C@H]1CC[C@@H](Nc2nc(N3CCOCC3)[nH]c(=O)c2-c2nc3ccccc3s2)CN1 | 565 nM |  |  |  |  |  |  |

Continued, values first:

| IC50 [1] | Papp [2] | clearance [3] | solubility kinetic [4] | bioavailability [5] | IC50 [6] | inhibition [7] | SMILES |
| --- | --- | --- | --- | --- | --- | --- | --- |
|  | 18 ×10⁻⁶ cm/s | 75 mL/min/kg | 23 µM (≈ 9.88 µg/mL) | 4% | 292 nM |  | O=c1[nH]c(N2CCC2)nc(N[C@@H]2C[C@H](CO)[C@@H](O)[C@H]2O)c1-c1nc2ccccc2s1 |
| 27 nM | 5 ×10⁻⁶ cm/s | 88 mL/min/kg | 12 µM (≈ 6.07 µg/mL) | 0% | 141 nM | Active | O=c1[nH]c(N2CCc3ccccc3C2)nc(N[C@@H]2C[C@H](CO)[C@@H](O)[C@H]2O)c1-c1nc2ccccc2s1 |
|  | 7 ×10⁻⁶ cm/s | 98 mL/min/kg | 63 µM (≈ 29 µg/mL) | 0% |  |  | O=c1[nH]c(N2CCOCC2)nc(N[C@@H]2C[C@H](CO)[C@@H](O)[C@H]2O)c1-c1nc2ccccc2s1 |
|  | 12 ×10⁻⁶ cm/s |  | 26 µM (≈ 11.5 µg/mL) |  | 78 nM |  | O=c1[nH]c(N2CCCC2)nc(N[C@@H]2C[C@H](CO)[C@@H](O)[C@H]2O)c1-c1nc2ccccc2s1 |
| 972 nM |  |  |  |  |  |  | CCc1nc(N[C@@H]2C[C@H](CO)[C@@H](O)[C@H]2O)c(-c2nc3ccccc3s2)c(=O)[nH]1 |

Source: ChEMBL document CHEMBL3621203, “Discovery and Structure Enabled Synthesis of 2,6-Diaminopyrimidin-4-one IRAK4 Inhibitors” (ACS Med Chem Lett, 2015)
